Measurements as given in PubChem BioAssay AID182 (DTP/NCI, 2004).
Toxic doses and inconclusive results are not listed. How the source made its calls: active means survival T/C of 150% or more; inactive means T/C below 125% in these data.

System: BDF1 mice, P388/ADR leukemia ip, median survival T/C
Assay: NCI In Vivo Anticancer Drug Screen. Data for tumor model P388 Leukemia resistant to Adriamycin; NSC 123127, Developed at Scr 06 and 41 (intraperitoneal) in B6D2F1 (BDF1) mice
Conditions: endpoint: median survival time, schedule: Q04DX003 (ip), vehicle: water, higher = longer survival
Protocol: The antitumor activity of compounds was measured in mice bearing transplantable tumors. Survival or tumor size were measured and the results are expressed as the measurement made in the treated group (T) divided by the measurement made in the vehicle treated control group (C). The tumor model used in this assay is P388 Leukemia resistant to Adriamycin; NSC 123127, Developed at Scr 06 and 41 (intraperitoneal) in B6D2F1 (BDF1) mice

Measured: T/C

COC(=O)[C@@H]1c2cc3c(c(O)c2[C@@H](OC2OC(C)C(OC)C(C)(OC)C2OC)C[C@]1(C)O)C(=O)c1c(O)cc2c(c1C3=O)O[C@H]1O[C@]2(C)[C@H](O)[C@@H](N(C)C)[C@@H]1O (stereo not given in full)
inactive: dose: 0.65 mg/kg/injection 89 % of control | dose: 1.08 mg/kg/injection 96 % of control | dose: 1.3 mg/kg/injection 103 % of control | dose: 1.8 mg/kg/injection 96 % of control | dose: 2.16 mg/kg/injection 91 % of control
